Measured values: ChEMBL document CHEMBL2028040, “Malaria Box”

Columns and labels:
[1] = tested on: Trypanosoma brucei brucei; assay: MMV: Inhibition of Trypanosoma brucei brucei (Squib 427) (HAT in vitro).; assay type: functional, organism-based
Plasmodium falciparum [2] = assay: MMV: Inhibition of Plasmodium falciparum 3D7 at 5uM compound concentration.; assay type: functional
Leishmania infantum = assay: MMV: Inhibition of Leishmania infantum (MHOM/MA/BE/67) in vitro.; assay type: functional, organism-based
Plasmodium falciparum [3] = assay: MMV: Inhibition of Plasmodium falciparum 3D7 (EC50).; assay type: functional, organism-based
[4] = tested on: Trypanosoma brucei rhodesiense; assay: MMV: Inhibition of Trypanosoma brucei rhodesiense (STIB 900) (HAT in vitro).; assay type: functional, organism-based
[5] = MMV: Cytotoxicity against human fibroblasts (MRC-5) cells.; conditions: MRC-5 cells (human fibroblasts)
Trypanosoma cruzi = assay: MMV: Inhibition of Trypanosoma cruzi (Tulahuen C4 LacZ) (Chagas in vitro).; assay type: functional, organism-based
Plasmodium falciparum [6] = assay: MMV: Inhibition of Plasmodium falciparum K1 (EC50).; assay type: functional, organism-based

IC50 [1] [µM]	IC50 (Leishmania infantum) [µM]	EC50 (Plasmodium falciparum [3]) [µM]	IC50 [4] [µM]	IC50 (Trypanosoma cruzi) [µM]	EC50 (Plasmodium falciparum [6]) [µM]	SMILES	inhibition at 5 µM (Plasmodium falciparum [2]) [%]	IC50 [5] [µM]
16.1	> 32	0.0367	4.32	> 32	0.0739	COc1ccc(NC(=O)C2c3ccccc3C(=O)N(CC(C)C)C2c2cccs2)cc1 (stereo not drawn)	100	> 32
1.02	1.59	0.407	0.972	0.954	0.362	CCCOCc1cc(CN2CCN(c3cccc(Cl)c3)CC2)c(O)c2ncccc12	97	1.67
> 32	16.2	0.205	> 32	> 32	0.114	CCOC(=O)c1c(NC(=O)c2ccccc2)sc2c(O)c(CN(CC)CC)ccc12	96	> 32
16.5	16.2	0.454	4.11	16.6	1.61	Cc1ccc(C2CC(C(F)(F)F)n3nc(C(=O)N4CCN(C(c5ccccc5)c5ccccc5)CC4)cc3N2)cc1 (stereo not drawn)	98	> 32
> 32	> 32	0.196	> 32	> 32	0.0581	CCCN(CCC)CC(O)COc1ccccc1C(=O)Nc1ccccc1 (stereo not drawn)	98	> 32
16.1	12	0.259	13.1	4.09	0.916	CCC(c1ccccc1)c1nn2c(-c3cccs3)nnc2s1 (stereo not drawn)	99	> 32
> 32	> 32	0.148	> 32	> 32	0.188	COc1ccc(C2=C(c3ccc(OC)cc3)C3(c4ccccc4)C(=O)C2(c2ccccc2)C2C(=O)N(c4ccc(C)cc4)C(=O)C23)cc1 (stereo not drawn)	98	> 32
1.02	5.38	0.66	1.01	14	0.239	OC(CNC1CCCC1)Cn1c2ccccc2c2ccccc21 (stereo not drawn)	97	18.8
14.8	16	0.548	15.8	14	0.268	Oc1ccccc1CN1CCC2(CCCN(Cc3ccccc3F)C2)C1 (stereo not drawn)	98	> 32
> 32	> 32	0.603	16	> 32	0.243	CC(NCc1ccccc1)c1cc(Cl)ccc1O (stereo not drawn)	95	> 32
15.3	> 32	0.64	4.54	> 32	0.419	CCC(O)c1ccc(Br)cc1NC(=O)c1cccc(Cl)c1 (stereo not drawn)	97	> 32
4.09	> 32	0.782	1.15	2.62	0.54	COc1cc(C(=O)ON=C(N)Cc2cccc3ccccc23)cc(OC)c1OC	99	5.66
3.38	4	0.326	2.75	4.91	0.285	Oc1ccc(-c2nc(-c3ccc4oc5ccc(-c6[nH]c(-c7ccc(O)cc7)nc6-c6ccccc6)cc5c4c3)c(-c3ccccc3)[nH]2)cc1	98	15.2
0.97	0.841	0.3	1	3.27	0.569	Cc1cc(NCCN2CCCCC2)c2ccc3ccccc3c2n1	99	16.1
4.09	4.06	1.06	1.32	3.52	0.497	Brc1ccc(Nc2nc3ccccc3nc2Nc2ccc(Br)cc2)cc1	98	5.88
> 32	> 32	0.728	21	18.7	1.36	CCOc1cc(Cl)c(C(C)NC(=O)c2cccc(OC)c2)cc1OCC (stereo not drawn)	98	6.59
> 32	> 32	0.117	> 32	> 32	0.127	CCOc1ccc(-c2nonc2NC(=O)c2cccc(C)c2)cc1OCC	86	> 32
1.01	3.01	0.0053	0.315	< 0.125	0.01	COc1ccccc1NC1=C(N2CCCCC2)C(=O)c2ccccc2C1=O	98	9.88
3.94	4.76	0.584	3.51	3.67	2.14	CCCCOC(=O)c1ccc(Nc2cc(C)nc3ccc(OC)cc23)cc1	99	14.3
< 0.125	16.6	1.17	< 0.125	< 0.125	1.45	O=C(NC(c1ccccc1)c1ccc2cccnc2c1O)c1ccccc1 (stereo not drawn)	95	11.8

Further lines, the compound ahead of its results:

SMILES	IC50 [1] [µM]	IC50 (Leishmania infantum) [µM]	EC50 (Plasmodium falciparum [3]) [µM]	IC50 [4] [µM]	IC50 (Trypanosoma cruzi) [µM]	EC50 (Plasmodium falciparum [6]) [µM]	inhibition at 5 µM (Plasmodium falciparum [2]) [%]	IC50 [5] [µM]
CCCCNc1nc(NC(C)(C)C)nc(NC(C)(C)C)n1	1.33	2.97	0.706	2	9.19	0.705	98	> 32
CCCCCCc1cc(O)c2c3c(c(=O)oc2c1)CCC(C)C3 (stereo not drawn)	4.18	> 32	0.534	4.21	> 32	0.467	96	> 32
CCN(CC)S(=O)(=O)c1ccc(-c2csc(Nc3ccc(C)c(C)c3)n2)cc1	> 32	16.2	0.641	> 32	> 32	1.04	97	> 32
COc1ccc2c(=O)cc(C(Cl)(Cl)Cl)oc2c1	16.9	16.2	0.52	> 32	0.432	0.55	94	7.58
Cc1cc(Nc2ccc(C)c(Cl)c2)n2nc(C(F)(F)F)nc2n1	> 32	> 32	0.00671	15.9	22.9	0.0141	98	> 32
COc1ccc(C=C2SC(Nc3ccc(F)cc3)=NC2=O)c(OC)c1	> 32	> 32	0.591	> 32	> 32	0.825	92	> 32
CCOc1cc2c(cc1OCC)C(c1cc(Cl)c(O)c(OCC)c1)NCC2 (stereo not drawn)	11	17.3	1.33	4.61	> 32	0.651	96	> 32
Cc1c(C)n(CC(O)CNC2CCCCC2C)c2ccccc12 (stereo not drawn)	3.84	> 32	0.769	1.01	> 32	0.438	96	> 32
Cc1ccc(-c2cc3nc4c(c(O)n3n2)CCCC4)cc1	15.5	> 32	0.396	3.73	> 32	1.12	73	> 32
CCN(Cc1ccccc1)C1CCN(Cc2cc(Br)ccc2O)CC1	10.9	16	0.625	11.4	11.8	0.187	97	> 32
COc1ccccc1CNC(=O)CCn1c(=O)[nH]c2ccsc2c1=O	> 32	> 32	0.14	> 32	> 32	0.15	67	> 32
CC1CN(C(=O)c2sc3ccccc3c2Cl)CC(C)O1 (stereo not drawn)	> 32	> 32	0.0255	> 32	> 32	0.195	95	> 32
CCOc1cc2c(cc1OCC)C(c1cc(C)c(O)c(C)c1)NCC2 (stereo not drawn)	12.9	17.3	0.683	4.06	> 32	0.168	97	> 32
Cc1sc2ncnc(Sc3nc4ccccc4[nH]3)c2c1C	> 32	> 32	0.615	> 32	> 32	0.582	100	> 32
CCC1(C)CC(CCNCc2ccccc2O)(c2ccc(C)cc2)CCO1 (stereo not drawn)	3.05	4.32	0.142	1.01	15.7	0.0372	97	16.1
Cc1ccc(CSCc2ccc(C(=O)NC3CC3)o2)cc1	> 32	> 32	0.635	> 32	> 32	1.13	97	> 32
